Data on 82 compounds can be found in PubChem BioAssay AID651684 (Sanford-Burnham Center for Chemical Genomics, 2012).

Molecules are shown by their SMILES. Active and inactive are the calls of the source.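 Rule for the calls: active = any single replicate giving an EC50 below 30 µM; inactive = the rest.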

In the assay the test system is Pro5-aDG cells, alpha-DG glycosylation, IIH6 AlphaLISA. Description: potency of alpha-dystroglycan glycosylation enhancers – Pro5-aDG cells, AlphaLISA, dose response (AID 651684).
Usually EC50 stands for the concentration needed to bring the measured effect to its halfway point. `CCC(C)Nc1nc(-c2c[nH]c3ccccc23)cs1` (configuration not stated): the EC50 is 4.36 µM.
The figure for `CC(C)N1CCN(c2ccc(OCC3COC(Cn4cncn4)(c4ccc(Cl)cc4Cl)O3)cc2)CC1` (configuration not stated) is 9.77 µM; for `Cc1cccc(CN2CCC(CNC(=O)Nc3ccc(F)c(Cl)c3)CC2)c1` it is 8.57 µM; for `C=CCn1c(=N)n(CC(=O)c2ccc(Cl)cc2)c2ccccc21` it is 41.6 µM (inactive).
With `CN1CCN(c2ncnc3c2ncn3[C@H]2CN(Cc3ccc(-c4ccccc4)cc3)C[C@@H](CO)O2)CC1`, the EC50 was 16.1 µM.
Regarding `CS(=O)(=O)c1ccc(Nc2nc(C(N)Cc3ccc(Cl)cc3)cs2)cc1` (configuration not stated), the EC50 was 8.93 µM.
The result for `COc1cc(CNCCN(C)C)ccc1OCc1c(F)cccc1Cl` reads 18 µM; that for `CCOc1ccc(N2CC(C(=O)N3CCN(c4ccccn4)CC3)CC2=O)cc1` (configuration not stated), 11.8 µM; that for `CC1CCCN(CCCNC(=O)c2nn(C)c3c2CSc2ccccc2-3)C1` (configuration not stated), 8.18 µM.
Turning to `CCCn1c(=N)n(CC(=O)c2ccc(Cl)cc2)c2ccccc21`, the EC50 was 33.6 µM.
The figure for `CCCCCNCC(=O)Nc1cccc(C(=O)Nc2cccc(C(F)(F)F)c2)c1` is 11.6 µM; for `c1cncc(-c2nnc(-c3cccnc3)nn2)c1` it is 8.73 µM; for `CCOc1ccc(-n2cc(C(=O)N3CCCCCC3)c3cc(OC)c(OC)cc3c2=O)cc1` it is 5.6 µM.
Take `Cc1cccc(NC(=S)N(CCCN2CCCC2)Cc2cccn2Cc2ccc(Cl)cc2)c1`: the EC50 is > 80 µM (inactive).
The figure for `CC(C)c1ccc(-c2cc(C(=O)N3CCOCC3)c3cc(Br)ccc3n2)cc1` is 6.31 µM.
The figure for `CN1N=C(N)c2cn(C3OC(COP(=O)(O)O)C(O)C3O)c3ncnc1c23` (configuration not stated) is 35.1 µM (inactive); for `COc1cccc(C(=O)Cn2c(=N)n(C)c3ccccc32)c1` it is 58.4 µM (inactive).
As to `CCCCCOc1ccc(/C(C)=N/NC2=NCCN2)cc1`, the EC50 is 5.81 µM.
The figure for `CN1CCN(S(=O)(=O)c2cccc(C(=O)Nc3sccc3C#N)c2)CC1` is 37.6 µM.
The figure for `CC(=O)Oc1c(Cl)cc(N(C(C)=O)S(=O)(=O)c2ccccc2)c2ccccc12` is 3.17 µM; for `COCCN1CCC(CNCc2cn(-c3cc(C)ccc3C)nc2-c2ccccc2)C1` (configuration not stated) it is > 80 µM (inactive); for `CCCC[n+]1ccn(C2=C([O-])c3ccccc3C(=O)/C2=N\S(=O)(=O)c2ccc(Br)cc2)c1` it is 6.95 µM.
The result for `COc1ccccc1NC(=O)Nc1nc(C(N)Cc2ccccc2)cs1` (configuration not stated) reads > 80 µM (inactive); that for `CC(=O)c1ccc(N2CCN(C(=O)Nc3ccc(C(C)C)cc3)CC2)cc1`, 12.8 µM; that for `N=c1c2c(ncn1CCCO)Oc1c(ccc3ccccc13)C2c1ccccc1` (configuration not stated), > 80 µM (inactive).
With `O=C(Nc1cccc2ccccc12)c1ccc([N+](=O)[O-])s1`, the EC50 was 6.88 µM.
The result for `Cc1ccc(NC(=O)c2ccc([N+](=O)[O-])s2)cc1S(=O)(=O)N1CCOCC1` reads 5.92 µM; that for `CC(C)(C)c1ccc(C(=O)Nc2ccc(C(=O)NCc3cccnc3)cc2)cc1`, 2.48 µM.
In the case of `O=C(Nc1ccccc1F)c1ccc([N+](=O)[O-])s1`, the EC50 is 8.89 µM.
The figure for `CC(C)COc1ccc(CSCCNC(=S)Nc2ccccc2)cc1` is 6.37 µM; for `COc1cc(CNC(=O)Nc2nc(C(N)Cc3ccc(Cl)cc3)cs2)cc(OC)c1OC` (configuration not stated) it is > 80 µM (inactive).
The figure for `Brc1ccc2ncnc(NCc3ccccc3)c2c1` is 3.34 µM; for `CCOC(=O)c1cc(-c2ccc(F)cc2)n(CCC(=O)NC2CCN(Cc3ccccc3)CC2)c1C` it is > 80 µM (inactive).
The result for `Cc1cc(Br)ccc1OCCCCNC(C)(C)C` reads 12.2 µM; that for `Cc1cc(NC2=CC(=O)C(=O)c3ccccc32)no1`, 6.66 µM; that for `CC(C)c1ccc(NC(=O)C2Cc3c(-c4ccc(Cl)cc4)ccnc3O2)cc1` (configuration not stated), 3.98 µM.
Regarding `CC1CCCN(S(=O)(=O)c2ccc(C(=O)Nc3sc4c(c3C(N)=O)CCN(C)C4)cc2)C1` (configuration not stated), the EC50 was 12.3 µM.
Take `CNc1nc(-c2c[nH]c3ccccc23)cs1`: the EC50 was 4.99 µM.
On to `CCCn1c(=N)n(CC(=O)c2ccc(Cl)c(Cl)c2)c2ccccc21`, for which the EC50 is 31.2 µM (inactive).
The figure for `O=C1C(Cl)=C(NCc2ccco2)C(=O)c2ccccc21` is 4.97 µM; for `CCCCN(C)CCNC(=O)c1cc(-c2cccnc2)nc2ccc(S(=O)(=O)N3CCC(C)CC3)cc12` it is > 80 µM (inactive).
The result for `CC(C)Oc1ccc(OCCCN2CCCCCC2)cc1` reads 12.4 µM.
The result for `Cc1cccc(/C=C2/Sc3ccc(C(=O)NCCN4CCCC4)cc3NC2=O)c1` reads > 80 µM (inactive); that for `Cc1nc(SCC(=O)Nc2cc(C(N)=O)cc(C(N)=O)c2)c2c(C)c(C)sc2n1`, 28.5 µM; that for `CCc1ccc(C2c3[nH]c4ccccc4c3CCN2C(=O)CN2CCN(CC)CC2)cc1` (configuration not stated), > 80 µM (inactive).
As for `CCC(c1nnnn1Cc1cccs1)N1CCN(c2nc3ccccc3s2)CC1` (configuration not stated), the EC50 is 22.6 µM.
On to `N#Cc1ccsc1NC(=O)c1cccc(-n2cnnn2)c1`, for which the EC50 was 20.7 µM.
The figure for `Cc1cncn1CCc1nc2c3ccccc3nc(SCC(=O)Nc3cccc(Cl)c3)n2n1` is > 80 µM (inactive); for `CCc1nc2ccc(C(=O)NC3CCN(Cc4ccccc4)CC3)cn2c1N(C)Cc1cc2ccccc2s1` it is 6.07 µM; for `CN1CCN(c2ccc(S(=O)(=O)N3CCCCC3)cc2NC(=O)/C=C/c2ccc(OC(F)F)cc2)CC1` it is > 80 µM (inactive).
The result for `CN(C)CCCNC(=O)/C=C/c1ccc(OCc2c(F)cccc2Cl)cc1` reads 9.37 µM; that for `CC(C)n1cc(CN2CCCC(C(=O)Nc3cccc(-c4cc5ccccc5[nH]4)c3)C2)cn1` (configuration not stated), > 80 µM (inactive); that for `O=C1C(=O)N(CCS(=O)(=O)c2ccccc2)c2ccc(F)cc21`, 9.36 µM.
Consider `Brc1cccc(-c2nc3c4ccccc4ccn3c2CC2CCCCC2)c1`, for which the EC50 is 23.7 µM.
The result for `COc1cc(/C=C/C(=O)Nc2nc3ccc(S(=O)(=O)NC(C)C)cc3s2)cc(OC)c1OC` reads 9.21 µM; that for `CCCCN1CCc2c1nc1ccc(Br)cc1c2N`, > 80 µM (inactive); that for `Cc1cc(C)n(-c2nc(NCCCN(C)C)c3c4c(sc3n2)CCCC4)n1`, 16.1 µM.
The figure for `Cc1ccnc(-n2c(C)nc3ccccc3c2=O)c1` is > 80 µM (inactive); for `C/C=C/c1ccc(OCCCNC2CCCC2)c(OC)c1` it is 11.7 µM.
The result for `N#Cc1ccc(-c2nc3c4ccccc4ccn3c2CC2CCCCC2)cc1` reads 7.97 µM; that for `CCCCCOc1ccc(NC(=O)C(=O)NCC2CCCN2CC)cc1` (configuration not stated), 8.54 µM.
`N=c1n(CCN2CCOCC2)c2ccccc2n1CC(=O)c1ccc(Cl)c(Cl)c1`: the EC50 was 47.1 µM (inactive).
On to `CCn1c(=N)n(CC(=O)c2ccc(Cl)c(Cl)c2)c2ccccc21`, for which the EC50 is 32 µM (inactive).
The result for `COc1ccc(Cc2nc(-c3ccc(NC(=O)c4cccnc4)cc3)no2)cc1` reads 1.52 µM.
The result for `COc1ccc(CN2CCC(C(=O)Nc3ccc(Oc4cccnc4)cc3)CC2)c(C)c1C` reads 8.89 µM; that for `COc1cc2[nH]c3c(=O)n4c(nc3c2cc1OC)SCCC4`, 6.47 µM; that for `CCOC(=O)N/N=C\c1ccc([N+](=O)[O-])s1`, 12.3 µM.
Take `CCn1cc(CN2CCC(C(=O)Nc3cccc(-c4cccc(Cl)c4)c3)CC2)c(C)n1`: the EC50 was 6.99 µM.
The figure for `CC(C)OC(=O)CN1C(=O)C(=O)c2ccccc21` is 6.56 µM; for `O=C(CNC(=O)c1ccccc1)N/N=C/c1ccc([N+](=O)[O-])s1` it is 6.46 µM; for `c1ccc2c(-c3cc(C4CCNCC4)[nH]n3)cccc2c1` it is > 80 µM (inactive).
For `CCN(CC)CCn1c(=N)n(CC(=O)c2ccc(C)cc2)c2ccccc21`, the EC50 was 24.5 µM.
The figure for `O=C(CNC(=O)c1ccccc1Cl)N/N=C/c1ccc([N+](=O)[O-])s1` is 7.48 µM; for `COCCNc1nc(NCCOc2ccccc2)c2sc(-c3ccccc3)cc2n1` it is 7.86 µM; for `C/C(=N/NC(=O)C(O)(c1ccccc1)c1ccccc1)c1ccc([N+](=O)[O-])o1` it is 12.7 µM.
The result for `CN(C)CCCNS(=O)(=O)c1ccc(NC2CCCCCC2)c([N+](=O)[O-])c1` reads 6.11 µM; that for `CCc1ccc(C(CNC(=O)c2ccc3c(=O)n(-c4ccccc4F)c(=S)[nH]c3c2)N(C)C)cc1` (configuration not stated), 1.9 µM.
The figure for `NC(c1csc(Nc2cc(Oc3ccccc3)ncn2)n1)C1CCCCC1` (configuration not stated) is 7.32 µM; for `N#Cc1ccsc1NC(=O)c1ccc2ncsc2c1` it is 42.7 µM.
Regarding `CCOc1ccc(NC(=O)c2ccc(F)c(S(=O)(=O)N3CCN(c4ccccn4)CC3)c2)cc1`, the EC50 was > 80 µM (inactive).
The result for `Cc1cc(NCc2ccccn2)n2ncc(-c3ccc(Cl)cc3)c2n1` reads 3.48 µM; that for `Cn1c(=N)n(CC(=O)c2ccc(Br)cc2)c2ccccc21`, 42.7 µM (inactive).
